Counter-ions that a name gives are not always drawn.

In the first assay the target is T1, SMO (Mus musculus, UniProt P56726).
T1 construct: endogenous in cells; host or cells: C3H10T1/2 (ATCC #CCL-226)
T1 sequence (P56726 33-793): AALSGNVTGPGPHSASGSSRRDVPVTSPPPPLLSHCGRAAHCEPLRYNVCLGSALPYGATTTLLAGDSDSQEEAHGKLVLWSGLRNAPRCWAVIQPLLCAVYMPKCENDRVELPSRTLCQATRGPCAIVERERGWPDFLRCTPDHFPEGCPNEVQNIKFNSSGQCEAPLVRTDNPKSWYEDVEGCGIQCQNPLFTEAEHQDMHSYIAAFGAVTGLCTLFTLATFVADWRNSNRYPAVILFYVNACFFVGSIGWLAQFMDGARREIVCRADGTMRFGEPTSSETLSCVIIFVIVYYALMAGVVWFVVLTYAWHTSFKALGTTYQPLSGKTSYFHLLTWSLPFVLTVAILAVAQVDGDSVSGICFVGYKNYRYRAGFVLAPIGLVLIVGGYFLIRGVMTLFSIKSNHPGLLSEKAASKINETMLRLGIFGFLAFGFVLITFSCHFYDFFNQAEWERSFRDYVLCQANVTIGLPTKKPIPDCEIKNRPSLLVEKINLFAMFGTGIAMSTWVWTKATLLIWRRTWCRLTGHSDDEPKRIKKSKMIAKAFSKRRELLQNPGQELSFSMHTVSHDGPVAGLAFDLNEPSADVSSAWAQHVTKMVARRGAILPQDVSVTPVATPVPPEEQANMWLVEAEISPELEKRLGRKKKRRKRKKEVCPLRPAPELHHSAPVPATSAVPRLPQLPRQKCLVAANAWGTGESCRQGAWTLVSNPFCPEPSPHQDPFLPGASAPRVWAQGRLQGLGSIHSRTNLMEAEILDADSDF
Briefly: Smoothened (SMO)/Sonic Hedgehog (SHh) Transient Transcriptional Activation Assay (Gli-luciferase reporter in C3H10T1/2 cells). It counts as cell-based, murine. As to conditions: 2 uM test compound, SHh 250 ng/ml, 20 hrs. As to the method:
As noted above, the compounds of the invention are useful as inhibitors of SMO. Methods for determining the in vitro activity of these compounds are described below: Smoothened (SMO)/Sonic Hedgehog (SHh) Transient Transcriptional Activation Assay
On Day 1,2×10^6 C3H10T1/2 cells (ATCC #CCL-226) were split and seeded in 12 mls of growth medium Basal Medium Eagle (BME, Invitrogen #21010-046) supplemented with 2 mM L-glutamine (Invitrogen #25030-081), 0.1 units/ml penicillin and 0.1 ug/ml streptomycin (Invitrogen #15140-122), and 10% Fetal Bovine Serum (FBS, Invitrogen #16140-071) in a T-75 flask (Costar #3376). They were allowed to attach for 4 hours at 37° C., 5% CO2. The cells were then transfected using Fugene 6 (Roch #11 814 443 001) in the following reaction: 48 ul Fugene 6 and 745 ul Opti-MEM (Invitrogen #31985-070) were mixed and allowed to sit at room temperature for 5 minutes. 8 ug of pGL4.14/mGli(CS) DNA (10× murine Gli response elements and minimal CS promoter) and 0.5 ug of pEGFP DNA (Clontech) were added, gently mixed and incubated at room temperature for 20 minutes. This entire transfection mix was then added to the T-75 flask containing the cells. The cells were incubated at 37 °C, 5% C02 for 18-24 hrs.
On Day 2, the transfected cells were trypsinized and seeded into white 96 well plates (Costar #3917) in 100ul/well of growth medium at a concentration of 20,000 cells/well. The cells were allowed to recover for 4 hrs before adding serum starvation medium Dulbecco's Modified Eagle Medium (DMEM, Invitrogen #21063-029) supplemented with 2 mM L-glutamine, 0.1 units/ml penicillin and 0.1 ug/ml streptomycin, and 0.5% Calf Serum (CS, Invitrogen #26170-043). The growth media was aspirated off, and the cells were rinsed with 100 ul of starvation media. 95 ul of starvation media was then added to each well. The cells were incubated for 20 hrs at 37 °C, 5% C02.
On Day 3, cells were dosed with test compounds at a final concentration ranging from 2 uM to 2 nM. Immediately after dosing cells with compounds, recombinant human sonic hedgehog (SHh, R&D Systems #1845-SH) was add to a final concentration of 250 ng/ml. A 25 ug vial of SHh was reconstituted with 250 ul PBS/0.1% BSA to give a 100 ng/ul working stock. This working stock was then diluted 1:20 in starvation media. The transfected cells were incubated with compounds and SHh for 20 hrs at 37 °C, 5% C02.
Luciferase assays were conducted on Day 4 using Dual-Glo Luciferase assay system (Promega #E2940) according to Promega's protocol. Briefly, Dual-Glo luciferase reagent was made up and 100 uls were added to each well of the 96 well plate containing media. Plates were shaken at room temperature for 10 minutes, and then read on TopCount (Perkin-Elmer). The luminescence was recorded.
For the compound “N-(3-(6-(2-Hydroxypropan-2-yl)-1-methyl-1H-benzo[d]imidazol-2-yl)cyclohexyl)-2,3-dihydrobenzo[b][1,4]dioxine-6-carboxamide and N-(3-(5-(2-Hydroxypropan-2-yl)-1-methyl-1H-benzo[d]imidazol-2-yl)cyclohexyl)-2,3-dihydrobenzo[b][1,4]dioxine-6-carboxamide [Example 31]”, the “SMO % inhibition at 2 uM” value stood at 97%. For the compound “N-(3-(6-((Dimethylamino)methyl]-1-methyl-1H-benzo[d]imidazol-2-yl)cyclohexyl)-2,3-dihydrobenzo[b][1,4]dioxine-6-carboxamide and N-(3-(5-((Dimethylamino)methyl]-1-methyl-1H-benzo[d]imidazol-2-yl)cyclohexyl)-2,3-dihydrobenzo[b][1,4]dioxine-6-carboxamide [Example 34]”, the “SMO % inhibition at 2 uM” value was found to be 96%.

Still in this assay, the particulars now being: 2 μM test compound, SHh 250 ng/ml, 20 hrs.
Consider `O=C(NC1CCCC(c2nc3ccccc3[nH]2)C1)c1ccc2cc[nH]c2c1` (stereo not drawn) [Example 141, N-[3-(1H-benzimidazol-2-yl)cyclohexyl]-1H-indole-6-carboxamide triflouroacetate], for which the “SMO CELL % INHIBITION @ 2 μM” value is listed as 110%.

The assay is the same for the next values; noted with them: 2 μM test compound, SHh 250 ng/ml, 20 hrs, 2 µM.
With `CN1CCCc2cc(C(=O)N[C@@H]3CCC[C@H](c4nc5ccccc5[nH]4)C3)ccc21` [Example 201, N-[(1R,3S)-3-(1H-benzimidazol-2-yl)cyclohexyl]-1-methyl-1,2,3,4-tetrahydroquino-line-6-carboxamide triflouroacetate], the “SMO CELL % INHIBITION @ 2 μM” value is recorded as 101%.

The same assay, now with this note: C3H 10T1/2, 2 uM test compound, SHh 250 ng/ml, 20 hrs, read-out: SMO % inhibition at 2 uM.
For `Cc1ccc2[nH]c(C3CCCC(NC(=O)c4ccc5c(c4)OCCO5)C3)nc2c1` (stereo not drawn) [Example 28, N-(3-(5-Methyl-1H-benzo[d]imidazol-2-yl)cyclohexyl]-2,3-dihydrobenzo[b][1,4]dioxine-6-carboxamide], the inhibition at 2 µM is 103%. Take `N#Cc1ccc2nc(C3CCCC(NC(=O)c4ccc5c(c4)OCCO5)C3)[nH]c2c1` (stereo not drawn) [Example 19, N-(3-(5-Cyano-1H-benzo[d]imidazol-2-yl)cyclohexyl]-2,3-dihydrobenzo[b][1,4]dioxine-6-carboxamide]: the inhibition at 2 µM turned out to be 100%.

Still in this assay, the particulars now being: C3H 10T1/2, 2 μM test compound, SHh 250 ng/ml, 20 hrs, read-out: SMO CELL % INHIBITION @ 2 μM.
`N#CCC(=O)NC1CCCC(c2nc3ccccc3[nH]2)C1` (stereo not drawn) [Example 102, N-[3-(1H-benzimidazaol-2-yl)cyclohexyl]-2-cyanoacetamide triflouroacetate]: the inhibition at 2 µM is 93%. With `Cc1ccc(C(=O)N[C@@H]2CCC[C@H](c3nc4ccccc4[nH]3)C2)c2ccccc12` [Example 183, N-[(1R,3S)-3-(1H-benzimidazol-2-yl)cyclohexyl]-4-methyl-1-naphthamide triflouroacetate], the inhibition at 2 µM worked out at 95%. As to `S=C(N[C@@H]1CCC[C@H](c2nc3ccccc3[nH]2)C1)c1ccc2c(c1)OCCO2` [Example 75, N-((1R,3S)-3-(1H-benzo[d]imidazol-2-yl)cyclohexyl)-2,3-dihydrobenzo[b] [1,4]dioxine-6-carbothioamide HCl], the inhibition at 2 µM came to 104%. As for `O=C(NC1CCCC(c2nc3ccccc3[nH]2)C1)c1ccc(-c2cnco2)cc1` (stereo not drawn) [Example 160, N-[3-(1H-benzimidazol-2-yl)cyclohexyl]-4-(1,3-oxazol-5-yl)benzamide triflouroacetate], the inhibition at 2 µM turned out to be 72%. `O=C(N[C@@H]1CCC[C@H](c2nc3ccccc3[nH]2)C1)c1ccc2c(c1)CN(CC1CC1)CC2` [Example 267, N-[(1R,3S)-3-(1H-benzimidazol-2-yl)cyclohexyl]-2-(cyclopropyl-methyl)-1,2,3,4-tetrahydroiso-quinoline-7-carboxamide HCl]: the inhibition at 2 µM turned out to be 103%. On to `O=C(N[C@@H]1CCC[C@H](c2nc3ccccc3[nH]2)C1)C1COc2ccccc2O1` (stereo partly drawn) [Example 196, N-[(1R,3S)-3-(1H-benzimidazol-2-yl)cyclohexyl]-2,3-dihydro-1,4-benzodioxine-2-carboxamide triflouroacetate], for which the inhibition at 2 µM worked out at 70%. Still for that read-out and setting: the same measure for `COc1cc(OC)cc(C(=O)NC2CCCC(c3nc4ccccc4[nH]3)C2)c1` (stereo not drawn) [Example 52, N-[3-(1H-benzimidazol-2-yl)cyclohexyl]-3,5-dimethoxybenz-amide HCl]: 105%; for `O=C(N[C@@H]1CCC[C@H](c2nc3ccccc3[nH]2)C1)[C@@H]1CCc2ccccc2O1` [Example 218, (2S)-N-[(1R,3S)-3-(1H-benzimidazol-2-yl)cyclohexyl] chromane-2-carboxamide triflouroacetate]: 96%. `CC(C)(C)c1ccc2nc(C3CCCC(NC(=O)c4ccc5c(c4)OCCO5)C3)[nH]c2c1` (stereo not drawn) [Example 78, N-[3-(6-tert-butyl-1H-benzimidazol-2-yl)cyclohexyl]-2,3-dihydro-1,4-benzodioxine-6-carboxamide HCl]: the inhibition at 2 µM was 100%. For `O=C(Cc1nc2cc(Cl)ccc2[nH]1)NC1CCCC(c2nc3ccccc3[nH]2)C1` (stereo not drawn) [Example 144, N-[3-(1H-benzimidazol-2-yl)cyclohexyl]-2-(5-chloro-1H-benzimidazol-2-yl)acetamide HCl], the inhibition at 2 µM was 105%. Turning to `O=C(N[C@@H]1CCC[C@H](c2nc3ccccc3[nH]2)C1)c1ccc2c(c1)CCNC2` [Example 309, N-[(1R,3S)-3-(1H-benzimidazol-2-yl)cyclohexyl]-1,2,3,4-tetrahydroiso-quinoline-6-carboxamide HCl], the inhibition at 2 µM was 102%. The same measure, in the same setting: the same measure for `Cc1cccc(=O)n1CC(=O)NC1CCCC(c2nc3ccccc3[nH]2)C1` (stereo not drawn) [Example 111, N-[3-(1H-benzimidazol-2-yl)cyclohexyl]-2-(6-methyl-2-oxopyridin-1(2H)-yl)acetamide triflouroacetate]: 103%; for `O=C(NC1CCCC(c2nc3ccccc3[nH]2)C1)c1cnn2c1CCCC2` (stereo not drawn) [Example 122, N-(3-(1H-benzo[d]imida-zol-2-yl)cyclohexyl)-4,5,6,7-tetrahydropyr-azolo[1,5-a]pyridine-3-carboxamide triflouroacetate]: 92%; for `O=C(NC1CCCC(c2nc3ccccc3[nH]2)C1)c1ccnn1-c1ccccc1` (stereo not drawn) [Example 106, N-[3-(1H-benzimidazol-2-yl)cyclohexyl]-1-phenyl-1H-pyrazole-5-carboxamide triflouroacetate]: 76%. Same read-out and setting: the same measure for `O=C(NC1CCCC(c2nc3ccccc3[nH]2)C1)c1ccc2cc[nH]c2c1` (stereo not drawn) [Example 140, N-[3-(1H-benzimidazol-2-yl)cyclohexyl]-1H-indole-6-carboxamide HCl]: 110%; for `O=C(Nc1ccc(-c2ccccc2)s1)N[C@@H]1CCC[C@H](c2nc3ccccc3[nH]2)C1` [Example 229, 1-[(1R,3S)-3-(1H-benzimidazol-2-yl)cyclohexyl]-3-(5-phenyl-2-thienyl)urea]: 108%. Still for that read-out and setting: the same measure for `O=C(N[C@@H]1CCC[C@H](c2nc3ccccc3[nH]2)C1)c1ccc2nonc2c1` [Example 190, N-[(1R,3S)-3-(1H-benzimidazol-2-yl)cyclohexyl]-2,1,3-benzoxadiazole-5-carboxamide triflouroacetate]: 37%; for `COc1cc(OC)cc(C(=O)N[C@@H]2CCC[C@H](c3nc4ccccc4n3C)C2)c1` [Example 167, 3,5-dimethoxy-N[(1R,3S)-3-(1-methyl-1H-benzimidazol-2-yl)cyclohexyl] benzamide HCl]: 101%.

The values are drawn from patent US20100029615A1, “BENZIMIDAZOLE DERIVATIVES” (priority 2006, published 2010).
